Legend:
PKAI = assay: Relative affinity for PKAI (cAMP = 1), in vitro; assay type: binding; details: relative to cAMP = 1
PKAII = assay: Relative affinity for PKAII (cAMP = 1), in vitro; assay type: binding; details: relative to cAMP = 1
Epac = target: T1, Epac (Homo sapiens, UniProt O95398); assay: Relative affinity for Epac (cAMP = 1), in vitro; assay type: binding; details: relative to cAMP = 1
T1 sequence (O95398 1-923): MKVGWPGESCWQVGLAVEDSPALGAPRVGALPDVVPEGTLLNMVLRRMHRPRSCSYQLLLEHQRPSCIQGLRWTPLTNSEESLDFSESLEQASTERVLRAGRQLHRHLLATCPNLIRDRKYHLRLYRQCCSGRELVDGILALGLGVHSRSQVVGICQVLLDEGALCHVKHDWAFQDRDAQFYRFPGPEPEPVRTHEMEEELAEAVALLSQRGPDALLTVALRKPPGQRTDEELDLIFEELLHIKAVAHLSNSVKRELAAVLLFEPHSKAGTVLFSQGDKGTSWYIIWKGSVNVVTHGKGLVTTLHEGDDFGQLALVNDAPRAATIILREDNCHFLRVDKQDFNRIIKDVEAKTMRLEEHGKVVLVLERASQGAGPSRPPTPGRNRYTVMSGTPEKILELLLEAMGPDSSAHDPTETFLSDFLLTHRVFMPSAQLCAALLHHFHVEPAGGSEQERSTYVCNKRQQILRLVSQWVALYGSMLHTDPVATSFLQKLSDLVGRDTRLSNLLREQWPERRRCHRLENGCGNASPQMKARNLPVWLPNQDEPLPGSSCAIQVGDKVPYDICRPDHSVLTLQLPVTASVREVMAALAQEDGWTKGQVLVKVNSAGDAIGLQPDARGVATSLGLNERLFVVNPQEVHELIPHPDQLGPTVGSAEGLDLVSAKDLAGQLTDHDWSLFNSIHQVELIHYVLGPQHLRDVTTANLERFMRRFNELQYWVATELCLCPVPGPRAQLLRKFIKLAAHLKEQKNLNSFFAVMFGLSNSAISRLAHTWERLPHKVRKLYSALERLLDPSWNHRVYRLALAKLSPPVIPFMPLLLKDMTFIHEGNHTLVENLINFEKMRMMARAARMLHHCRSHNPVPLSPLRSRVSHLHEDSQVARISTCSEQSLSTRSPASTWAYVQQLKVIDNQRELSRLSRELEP

Epac1-ΔDEP1 = target: T2, Epac1-ΔDEP1 (Homo sapiens, UniProt O95398); assay: In vitro GEF assay: Epac activity in the exchange reaction towards Rap (mantGDP-loaded Rap1b); assay type: biochemical; details: in vitro in the exchange reaction towards Rap; note: key: +++: activity comparible to I-007; ++: activity between I-007 and cAMP; +: activity comparible to cAMP; ±: activity less than cAMP
T2 sequence (O95398 191-923 limits assumed): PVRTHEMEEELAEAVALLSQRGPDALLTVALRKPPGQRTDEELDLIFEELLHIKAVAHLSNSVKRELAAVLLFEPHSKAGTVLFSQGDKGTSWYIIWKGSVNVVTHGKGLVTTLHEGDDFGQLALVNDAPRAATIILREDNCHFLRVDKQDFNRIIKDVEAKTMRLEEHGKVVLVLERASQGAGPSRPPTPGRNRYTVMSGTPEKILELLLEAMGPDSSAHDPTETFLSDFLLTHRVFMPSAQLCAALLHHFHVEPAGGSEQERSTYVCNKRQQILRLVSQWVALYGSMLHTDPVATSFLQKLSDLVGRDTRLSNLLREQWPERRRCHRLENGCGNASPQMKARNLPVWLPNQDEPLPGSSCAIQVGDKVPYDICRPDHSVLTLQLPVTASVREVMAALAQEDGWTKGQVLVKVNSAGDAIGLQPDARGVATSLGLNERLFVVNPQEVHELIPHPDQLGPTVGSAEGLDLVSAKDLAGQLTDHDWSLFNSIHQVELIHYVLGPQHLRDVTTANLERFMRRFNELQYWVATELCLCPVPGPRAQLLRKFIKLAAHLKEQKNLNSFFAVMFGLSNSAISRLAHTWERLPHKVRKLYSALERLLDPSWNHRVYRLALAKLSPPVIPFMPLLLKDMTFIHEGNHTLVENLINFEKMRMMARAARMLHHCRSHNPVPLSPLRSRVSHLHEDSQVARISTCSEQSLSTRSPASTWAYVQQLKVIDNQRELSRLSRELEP
Protocol: In vitro GEF assays were performed as described (3,16). […] Buffer conditions were 50 mM Tris pH7.4, 150 mM NaCl, 5% glycerol, 5 mM DTE, 60 μM GTP. Reactions were carried out in 96-well plates and measured in a Cary Eclipse from Varian Inc., using the manufacturers software.

Row | Substance | Relative affinity CAMP = 1 PKAI (PKAI) | Relative affinity CAMP = 1 PKAII (PKAII) | Relative affinity CAMP = 1 Epac (Epac) | Relative activity of Epac* (Epac1-ΔDEP1)
1 | 8-bromo-2′-O-methyladenosine-3′,5′-cyclic monophosphate [Compound I-006] | 0.0015 | 0.003 | 0.9 | ++
2 | 8-isopropylthio-2′-O-methyladenosine-3′,5′-cyclic monophosphate [Compound I-113] | 0.028 | 0.0004 | 0.7 | +
3 | 8-methylamino-2′-O-methyladenosine-3′,5′-cyclic monophosphate [Compound I-100] | 0.0014 | 0.0001 | <0.5 | ±
4 | 8-n-hexylthio-2′-O-methyladenosine-3′,5′-cyclic monophosphate [Compound I-109] | 0.03 | 0.0008 | 1.2 | ++
5 | 8-(4-methyl-cumarinyl-7-thio)-2′-O-methyladenosine-3′,5′-cyclic monophosphate [Compound I-103] | 0.03 | 0.0005 | 1.8 | ±
6 | 8-(4-methoxy-phenylthio)-2′-O-methyladenosine-3′,5′-cyclic monophosphate [Compound I-112] | 0.025 | 0.0006 | 6.5 | +++
7 | 8-(naphtyl-2-thio)-2′-O-methyladenosine-3′,5′-cyclic monophosphate [Compound I-104] | 0.03 | 0.001 | 2.3 | ++
8 | 8-(2-amino-phenylthio)-2′-O-methyladenosine-3′,5′-cyclic monophosphate [Compound I-107] | 0.004 | 0.0001 | 1.3 | +
9 | 8-bromo-2′-deoxyadenosine-3′,5′-cyclic monophosphate [Compound I-002] | 0.01 | 0.00001 | 0.12 | +
10 | 8-(4-fluoro-phenylthio)-2′-O-methyladenosine-3′,5′-cyclic monophosphate [Compound I-102] | 0.02 | 0.0004 | 4.5 | +++
11 | 8-benzylthio-2′-O-methyladenosine-3′,5′-cyclic monophosphate [Compound I-108] | 0.04 | 0.0007 | 1.3 | +
12 | 8-(4-nitro-phenylthio)-2′-O-methyladenosine-3′,5′-cyclic monophosphate [Compound I-106] | 0.02 | 0.0002 | 1.2 | ++
13 | 8-(4-chloro-phenylthio)-2′-deoxyadenosine-3′,5′-cyclic monophosphate [Compound I-003] | 0.001 | 0.001 | 0.2 | +
14 | 8-phenylthio-2′-O-methyladenosine-3′,5′-cyclic monophosphate [Compound I-105] | 0.02 | 0.0005 | 3.6 | ++
15 | 2′-deoxyadenosine-3′,5′-cyclic monophosphate [Compound I-001] | 0.00013 | 0.000088 | 0.0025 | +
